Results taken from ChEMBL document CHEMBL4261503, “Scaffold hopping via ANCHOR.QUERY: β-lactams as potent p53-MDM2 antagonists†” (Medchemcomm, 2017).

Columns and labels:
Protein Mdm4 = molecular target: T1, Protein Mdm4 (Homo sapiens, UniProt O15151)
T1 sequence (O15151 whole entry): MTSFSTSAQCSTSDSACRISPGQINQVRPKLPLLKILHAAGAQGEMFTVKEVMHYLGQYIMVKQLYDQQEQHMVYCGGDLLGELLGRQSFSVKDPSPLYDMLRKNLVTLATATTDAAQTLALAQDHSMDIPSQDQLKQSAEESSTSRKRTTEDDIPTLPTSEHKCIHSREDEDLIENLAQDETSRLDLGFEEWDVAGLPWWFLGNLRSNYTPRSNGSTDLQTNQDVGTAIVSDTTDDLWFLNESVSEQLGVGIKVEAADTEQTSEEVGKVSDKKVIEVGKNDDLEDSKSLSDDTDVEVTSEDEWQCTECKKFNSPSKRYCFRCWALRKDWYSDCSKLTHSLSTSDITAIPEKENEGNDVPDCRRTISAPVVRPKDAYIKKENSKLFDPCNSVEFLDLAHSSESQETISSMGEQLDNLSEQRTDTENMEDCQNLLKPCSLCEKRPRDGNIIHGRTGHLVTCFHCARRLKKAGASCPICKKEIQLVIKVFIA

[1] = molecular target: E3 ubiquitin-protein ligase Mdm2 (Homo sapiens, UniProt Q00987)
Sequence of E3 ubiquitin-protein ligase Mdm2 (Q00987 whole entry): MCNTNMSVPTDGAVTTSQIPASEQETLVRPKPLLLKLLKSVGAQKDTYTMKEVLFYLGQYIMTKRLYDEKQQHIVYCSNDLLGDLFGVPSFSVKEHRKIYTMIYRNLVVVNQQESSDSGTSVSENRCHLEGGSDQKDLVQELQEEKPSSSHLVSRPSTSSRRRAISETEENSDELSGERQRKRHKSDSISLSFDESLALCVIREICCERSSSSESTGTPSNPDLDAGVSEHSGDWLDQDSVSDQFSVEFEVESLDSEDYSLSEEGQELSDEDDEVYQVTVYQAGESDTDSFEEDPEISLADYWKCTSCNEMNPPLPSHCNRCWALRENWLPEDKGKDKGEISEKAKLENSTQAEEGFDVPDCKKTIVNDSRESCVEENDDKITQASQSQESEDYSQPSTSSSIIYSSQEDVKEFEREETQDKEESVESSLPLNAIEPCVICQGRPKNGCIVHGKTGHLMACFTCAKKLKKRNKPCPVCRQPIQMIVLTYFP

Row | SMILES | Ki (Protein Mdm4) | Ki [1]
1 | O=C(NC12CC3CC(CC(C3)C1)C2)C(c1ccc(Cl)cc1)N1C(=O)CC1c1ccc(OCc2ccccc2)cc1 (single isomer, unassigned; diastereomer A) | Not Active | Not Active
2 | CC(C)(C)NC(=O)C(c1ccc(Cl)cc1)N1C(=O)CC1c1ccc(OCc2ccccc2)cc1 (mixture of isomers) | Not Active | Not Active
